Data as given in ChEMBL document CHEMBL1154103, “Bioactive conformation analysis of cyclic imides as protoporphyrinogen oxidase inhibitor by combining DFT calculations, QSAR and molecular dynamic simulations” (Bioorg Med Chem, 2009).

Each molecule was assayed against T1, Protoporphyrinogen oxidase (Bacillus subtilis (strain 168), UniProt P32397) (assay: Inhibition of Bacillus subtilis Protoporphyrinogen oxidase by capillary electrophoresis).
T1 sequence (P32397 whole entry): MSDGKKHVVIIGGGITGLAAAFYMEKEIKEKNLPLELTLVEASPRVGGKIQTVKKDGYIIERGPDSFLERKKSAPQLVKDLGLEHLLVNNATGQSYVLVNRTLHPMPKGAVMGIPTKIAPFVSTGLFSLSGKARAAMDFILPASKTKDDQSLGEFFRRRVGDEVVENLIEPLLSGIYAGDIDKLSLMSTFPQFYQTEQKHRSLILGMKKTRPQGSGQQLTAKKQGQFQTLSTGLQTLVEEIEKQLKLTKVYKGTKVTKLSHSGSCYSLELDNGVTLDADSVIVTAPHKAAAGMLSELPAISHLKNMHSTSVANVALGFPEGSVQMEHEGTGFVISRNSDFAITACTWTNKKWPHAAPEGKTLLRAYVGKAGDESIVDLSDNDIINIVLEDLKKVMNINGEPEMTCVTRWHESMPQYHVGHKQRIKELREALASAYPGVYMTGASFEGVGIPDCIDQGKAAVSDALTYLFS

Q: Which Ki does the source give for `CNC(=O)Nc1cc(N2C(=O)C3=C(CCCC3)C2=O)c(F)cc1Cl` here?
A: 372 nM

Q: How did the Ki turn out when `O=C(NC(=O)c1ccccc1)Nc1cc(N2C(=O)C3=C(CCCC3)C2=O)c(F)cc1Cl` was run?
A: 89.1 nM

Q: With `O=C(NC(=O)c1ccccc1)Nc1cc(N2C(=O)C3=C(CCCC3)C2=O)ccc1Cl` as the molecule, how does the Ki read?
A: 6170 nM

Q: With `C#CCN1C(=O)C(C)Oc2cc(F)c(N3C(=O)c4ccc(C)cc4C3=O)cc21` (stereo not given) as the molecule, how does the Ki read?
A: 4790 nM

Q: For `O=C(NC(=O)c1ccc(Cl)cc1Cl)Nc1cc(N2C(=O)C3=C(CCCC3)C2=O)c(F)cc1Cl`, which Ki is on record?
A: 26.9 nM

Q: `O=C(NC(=O)c1cccc(OC(F)(F)F)c1)Nc1cc(N2C(=O)C3=C(CCCC3)C2=O)c(F)cc1Cl` was tested. Which Ki did it give?
A: 33.9 nM

Q: For `O=C(Nc1cccc(C(F)(F)F)c1)Nc1cc(N2C(=O)C3=C(CCCC3)C2=O)c(F)cc1Cl`, which Ki is on record?
A: 25.1 nM

Q: `C#CCN1C(=O)C(C)Oc2cc(F)c(N3C(=O)c4cccc(F)c4C3=O)cc21` (stereo not given) was tested. Which Ki did it give?
A: 5010 nM

Q: Which Ki does the source give for `C#CCN1C(=O)COc2cc(F)c(N3C(=O)c4ccccc4C3=O)cc21` here?
A: 3310 nM

Q: Which Ki does the source give for `CCOC(=O)C(C)N1C(=O)C(C)Oc2cc(F)c(N3C(=O)C4=C(CCCC4)C3=O)cc21` (stereo not given) here?
A: 110 nM

Q: `O=C(NC(=O)c1c(F)cccc1Cl)Nc1cc(N2C(=O)C3=C(CCCC3)C2=O)c(F)cc1Cl` was tested. Which Ki did it give?
A: 8.32 nM

Q: `CCOC(=O)C(CC)N1C(=O)COc2cc(F)c(N3C(=O)C4=C(CCCC4)C3=O)cc21` (stereo not given) was tested. Which Ki did it give?
A: 44.7 nM

Q: How did the Ki turn out when `O=C(NC(=O)c1c(Cl)cccc1Cl)Nc1cc(N2C(=O)C3=C(CCCC3)C2=O)c(F)cc1Cl` was run?
A: 12.9 nM

Q: With `COC(=O)CN1C(=O)C(C)Oc2cc(F)c(N3C(=O)C4=C(CCCC4)C3=O)cc21` (stereo not given) as the molecule, how does the Ki read?
A: 39.8 nM

Q: Which Ki does the source give for `COC(=O)C(C)N1C(=O)C(C)Oc2cc(F)c(N3C(=O)C4=C(CCCC4)C3=O)cc21` (stereo not given) here?
A: 49 nM

Q: For `CC(C)N(C(=O)Nc1cc(N2C(=O)C3=C(CCCC3)C2=O)c(F)cc1Cl)C(C)C`, which Ki is on record?
A: 229 nM

Q: Which Ki does the source give for `CCC(C(=O)OC)N1C(=O)COc2cc(F)c(N3C(=O)C4=C(CCCC4)C3=O)cc21` (stereo not given) here?
A: 8.13 nM

Q: `C#CCN1C(=O)COc2cc(F)c(N3C(=O)c4ccc(C)cc4C3=O)cc21` was tested. Which Ki did it give?
A: 2820 nM

Q: For `CCOC(=O)CN1C(=O)C(C)Oc2cc(F)c(N3C(=O)C4=C(CCCC4)C3=O)cc21` (stereo not given), which Ki is on record?
A: 60.3 nM

Q: For `O=C(Nc1ccc(Cl)cc1)Nc1cc(N2C(=O)C3=C(CCCC3)C2=O)c(F)cc1Cl`, which Ki is on record?
A: 28.2 nM

Q: `CCCN(CCC)C(=O)Nc1cc(N2C(=O)C3=C(CCCC3)C2=O)ccc1Cl` was tested. Which Ki did it give?
A: 288 nM

Q: For `CCOC(=O)C(c1ccccc1)N1C(=O)C(C)Oc2cc(F)c(N3C(=O)C4=C(CCCC4)C3=O)cc21` (stereo not given), which Ki is on record?
A: 91.2 nM

Q: `CCOC(=O)C(C)N1C(=O)COc2cc(F)c(N3C(=O)C4=C(CCCC4)C3=O)cc21` (stereo not given) was tested. Which Ki did it give?
A: 120 nM

Q: How did the Ki turn out when `CC(C)(CCl)C(=O)Nc1cc(N2C(=O)C3=C(CCCC3)C2=O)c(F)cc1Cl` was run?
A: 871 nM

Q: Which Ki does the source give for `N#CCN1C(=O)COc2cc(F)c(N3C(=O)c4ccccc4C3=O)cc21` here?
A: 1020 nM
